Measured values as given in patent US20050148495A1, “Methods and materials including for treating acne” (priority 2003, published 2005).
Like-named read-outs stand apart in the source and are kept apart here. Non-standard residues stand in square brackets, D forms with d. Residues, ends and D or L forms follow the SMILES beside them. d1Nal = N[C@H](Cc1cccc2ccccc12)C(=O)O

Test system: P. avidum
Format: cell-based, Propionibacterium avidum
Description: This example addresses studies relating to the antimicrobial activities of XMP.629. An in vitro assessment of antibiotic activity in XMP.629 and various known antibiotics against a representative panel of bacterial strains associated with acne was conducted. A broth dilution methodology was employed using guidelines established by National Committee for Clinical Laboratory Standards (NCCLS) for anaerobic organisms to establish an antibacterial profile for XMP.629. Assays to determine the minimal bactericidal concentrations (MBC) and minimal inhibitory concentration (MIC) were conducted for XMP.629 and other known antibiotics. Furthermore, test to determine post antibiotic effect (PAE) of XMP.629 were done.
Inoculum from a representative panel of bacterial strains associated with acne, such as P. acnes, P. avidum, P. granulosum, and Staphylococcus epidermis was prepared by suspending approximately 5-10 isolated bacterial colonies in pre-reduced MicroScan® Inoculum Water (Dade Behring, Deerfield, Ill.), and growing the bacterial suspension to log phase (approximately 48 hrs). An inoculum of between 1-5×10^6/mL was achieved by adding 100 μL of the suspension to 25 mL Brain Heart Infusion Broth (BHI) (Anaerobe Systems, Morgan Hill, Calif.).
A stock solution of XMP.629 dissolved in water at a concentration of 4.0 mg/mL was prepared. Dilute solutions of XMP.629 at concentrations ranging from about 1.25 to about 160 μg/mL were made in either water or formulation buffer (130 mM sodium chloride, 0.2% P103 (poloxamer 333), and 0.10% EDTA, pH 7.3). Aqueous stock solutions of clindamycin and erythromycin were prepared in water.
Each tube, containing a final volume of 1 mL, was mixed by vortexing. Control tubes containing only water or formulation buffer were prepared for each isolate. Initial growth controls were determined by removing 10 μL from the water control tube and diluting it by 100 fold. From this dilution, 10 μL was used for inoculation and for spreading over the surface onto Laked Blood Agar (LBA) (Anaerobe Systems, Morgan Hill, Calif.) plates. The tubes and plates were incubated in an anaerobic atmosphere at 37° C. for 48 h. After incubation, the tubes were mixed and 10 μL samples were removed from each tube for additional plating. These plates were then further incubated in an anaerobic atmosphere at 37° C. for 48-72 h and the resulting colonies were counted. After adjusting for the dilution factor, the lowest concentration of drug or combination of drugs reducing the inoculum by ≧99.9% was considered to be the minimum bactericidal concentration (MBC). MBC50 and 90 values represent where 50 and 90%, respectively, of the tested strain's MBC values are equal to or less than the indicated concentration. The lowest concentration of antibiotic(s) that inhibited visible growth in the culture tubes was considered to be the minimal inhibitory concentration (MIC).
For comparison, additional Propionibacterium strains, were tested.

[1] = RMA 8375, Formulation Buffer Solvent, Study 1
[2] = RMA 8375, Formulation Buffer Solvent, Study 2
[3] = RMA 8375, Water Solvent, Study 1
[4] = RMA 8375, Water Solvent, Study 2
[5] = RMA 8376, Formulation Buffer Solvent, Study 1
[6] = RMA 8376, Formulation Buffer Solvent, Study 2
[7] = RMA 8376, Water Solvent, Study 1
[8] = RMA 8376, Water Solvent, Study 2
[9] = RMA 9497, Formulation Buffer Solvent, Study 1
[10] = RMA 9497, Formulation Buffer Solvent, Study 2
[11] = RMA 9497, Water Solvent, Study 1
[12] = RMA 9497, Water Solvent, Study 2
[13] = RMA 13009, Formulation Buffer Solvent, Study 1
[14] = RMA 13009, Formulation Buffer Solvent, Study 2
[15] = RMA 13009, Water Solvent, Study 1
[16] = RMA 13009, Water Solvent, Study 2

CC(C)C[C@@H](NC(=O)[C@H](N)CCCCN)C(=O)N[C@H](Cc1ccccc1)C(=O)N[C@H](CCCNC(=N)N)C(=O)N[C@H](Cc1cccc2ccccc12)C(=O)N[C@H](CCC(N)=O)C(=O)N[C@H](C)C(=O)N[C@H](CCCCN)C(=O)N[C@H](Cc1cccc2ccccc12)C(N)=O [XMP.629, NH2-lys-leu-phe-arg-(3-(1-naphthyl)-ala)-gln-ala-lys-(3-(1-naphthyl)-ala)-CONH2] (H-[dK][dL][dF][dR][d1Nal][dQ][dA][dK][d1Nal]-NH2)
MBC50 (P. avidum, 4 strains): 1 µg/mL | MBC90 (P. avidum, 4 strains): 2 µg/mL | MBC Range (P. avidum, 4 strains, in µg/mL): 1-2 | MBC [1]: 0.50 µg/mL | MIC [1]: 0.25 µg/mL | MBC [2]: 1 µg/mL | MIC [2]: 0.25 µg/mL | MBC [3]: 1 µg/mL | MIC [3]: 0.5 µg/mL | MBC [4]: 2 µg/mL | MIC [4]: 1 µg/mL | MBC [5]: 0.50 µg/mL | MIC [5]: 0.5 µg/mL | MBC [6]: 2 µg/mL | MIC [6]: 0.25 µg/mL | MBC [7]: 2 µg/mL | MIC [7]: 1 µg/mL | MBC [8]: 2 µg/mL | MIC [8]: 1 µg/mL | MBC [9]: 1 µg/mL | MIC [9]: 0.25 µg/mL | MBC [10]: 2 µg/mL | MIC [10]: 0.25 µg/mL | MBC [11]: 2 µg/mL | MIC [11]: 2 µg/mL | MBC [12]: 4 µg/mL | MIC [12]: 1 µg/mL | MBC [13]: 0.50 µg/mL | MIC [13]: 0.25 µg/mL | MBC [14]: 1 µg/mL | MIC [14]: 0.25 µg/mL | MBC [15]: 1 µg/mL | MIC [15]: 1 µg/mL | MBC [16]: 1 µg/mL | MIC [16]: 1 µg/mL
